T/C data for 15 molecules are collected here from PubChem BioAssay AID228 (DTP/NCI, 2004).

Values joined by “and” are separate entries in the source; they are usually repeats but may differ in a detail not shown here. Identical values can stand only once. Records with an inconclusive call do not appear. Starred links: 1 amine or outer side, 2 acyl side, 3 side chain; linkers in the order of their positions; H or OH if unused. Positions of bridges follow the written chain, without caps; N, C: chain ends. Non-standard residues stand in square brackets, D forms with d. Residues, ends and D or L forms follow the SMILES beside them. Chains are numbered I, II in the order given. Actinocin(9to1) = Cc1c2oc3c(C)ccc(C(=O)[*:1])c3nc-2c(C(=O)[*:2])c(N)c1=O; aThr = C[C@H](O)[C@H](N)C(=O)O; NMeV = CN[C@H](C(=O)O)C(C)C; Sar = CNCC(=O)O

For this assay, the system named is BDF1 mice, Friend leukemia sc, tumor weight T/C. Nature of the assay: NCI In Vivo Anticancer Drug Screen. Data for tumor model Friend Virus Leukemia (Solid) (subcutaneous) in B6D2F1 (BDF1) mice. Conditions: endpoint: mean tumor weight, schedule: Q01DX011 (ip), higher = larger tumour. On the procedure: The antitumor activity of compounds was measured in mice bearing transplantable tumors. Survival or tumor size were measured and the results are expressed as the measurement made in the treated group (T) divided by the measurement made in the vehicle treated control group (C). The tumor model used in this assay is Friend Virus Leukemia (Solid) (subcutaneous) in B6D2F1 (BDF1) mice

The mark [1] stands for this setting: dose: 45.0 mg/kg/injection, vehicle: carboxymethylcellulose (CMC).
Setting [2] is: dose: 90.0 mg/kg/injection, vehicle: carboxymethylcellulose (CMC).
Setting [3] is: dose: 125.0 mg/kg/injection, vehicle: carboxymethylcellulose (CMC).
[4] abbreviates: dose: 0.05 mg/kg/injection, vehicle: carboxymethylcellulose (CMC).

`C[C@H](N)C(=O)N[C@@H]1[C@H]2C(=C(O)C[C@@H](O)[C@@H]2O)C(=O)O[C@@H]1C`: the T/C was 43 % of control (dose: 100.0 mg/kg/injection, vehicle: carboxymethylcellulose (CMC)); 48 % of control (dose: 200.0 mg/kg/injection, vehicle: carboxymethylcellulose (CMC)); 17 % of control (dose: 1000.0 mg/kg/injection, vehicle: carboxymethylcellulose (CMC)).

With `C=CCNc1ccc(C)cc1`, the T/C is, setting by setting: (dose: 22.0 mg/kg/injection, vehicle: carboxymethylcellulose (CMC)) 60 % of control; under setting [1], 58 % of control; under setting [2], 35 % of control.

Turning to `O=C(Nc1ccc(C2=NCCN2)cc1)c1ccc(C(=O)Nc2ccc(C3=NCCN3)cc2)c(NC(=O)c2ccc(C(=O)Nc3cc(C(=O)Nc4ccc(C5=NCCN5)cc4)ccc3C(=O)Nc3ccc(C4=NCCN4)cc3)cc2)c1`, the T/C reads like this: under setting [3], 161 % of control; (dose: 500.0 mg/kg/injection, vehicle: carboxymethylcellulose (CMC)) 115 % of control.

`CCN(CC)CCNc1ccc(C)c2sc3ccccc3c(=O)c12`: the T/C was 184 % of control (dose: 1.0 mg/kg/injection, vehicle: carboxymethylcellulose (CMC)); 199 % of control (dose: 6.0 mg/kg/injection, vehicle: carboxymethylcellulose (CMC)); 37 % of control (dose: 6.25 mg/kg/injection, vehicle: carboxymethylcellulose (CMC)); 174 % of control (dose: 8.0 mg/kg/injection, vehicle: carboxymethylcellulose (CMC)); 199 % of control (dose: 8.1 mg/kg/injection, vehicle: carboxymethylcellulose (CMC)); 35 % of control (dose: 12.5 mg/kg/injection, vehicle: carboxymethylcellulose (CMC)). For the same molecule, the T/C (dose: 16.0 mg/kg/injection, vehicle: carboxymethylcellulose (CMC)) is 274 % of control; the T/C (dose: 16.2 mg/kg/injection, vehicle: carboxymethylcellulose (CMC)) is 179 % of control; the T/C (dose: 26.0 mg/kg/injection, vehicle: carboxymethylcellulose (CMC)) was 111 % of control; the T/C (dose: 32.0 mg/kg/injection, vehicle: carboxymethylcellulose (CMC)) was 66 % of control; the T/C (dose: 33.0 mg/kg/injection, vehicle: carboxymethylcellulose (CMC)) was 69 % of control; the T/C (dose: 43.0 mg/kg/injection, vehicle: carboxymethylcellulose (CMC)) is 72 % of control. Further, the T/C was 31 % of control and 32 % of control (dose: 50.0 mg/kg/injection, vehicle: carboxymethylcellulose (CMC)); 3 % of control and 7 % of control (dose: 75.0 mg/kg/injection, vehicle: carboxymethylcellulose (CMC)).

For `CN=C(N)c1ccc(N=C(N)c2ccc(C(N)=Nc3ccc(C(N)=NC)cc3)cc2)cc1`, the T/C runs as follows: (dose: 7.5 mg/kg/injection, vehicle: saline) 182 % of control; (dose: 10.0 mg/kg/injection, vehicle: saline) 183 % of control; (dose: 15.0 mg/kg/injection, vehicle: saline) 165 % of control.

As to `N#Cc1cn(C2OC(CO)C(O)C2O)c2ncnc(N)c12` (configuration not stated), the T/C under setting [4] was 68 % of control; the T/C (dose: 0.1 mg/kg/injection, vehicle: carboxymethylcellulose (CMC)) is 72 % of control; the T/C (dose: 0.15 mg/kg/injection, vehicle: carboxymethylcellulose (CMC)) is 71 % of control.

Take `O=C1CN(/N=C\c2ccc([N+](=O)[O-])o2)C(=O)N1`: the T/C (dose: 4.7 mg/kg/injection, vehicle: carboxymethylcellulose (CMC)) was 101 % of control; the T/C (dose: 9.5 mg/kg/injection, vehicle: carboxymethylcellulose (CMC)) is 91 % of control and 96 % of control; the T/C (dose: 19.0 mg/kg/injection, vehicle: carboxymethylcellulose (CMC)) is 96 % of control and 100 % of control.

For `c1ccc2[nH]cnc2c1`, the T/C (dose: 38.5 mg/kg/injection, vehicle: carboxymethylcellulose (CMC)) is 82 % of control and 88 % of control; the T/C (dose: 77.0 mg/kg/injection, vehicle: carboxymethylcellulose (CMC)) is 80 % of control and 83 % of control; the T/C (dose: 308.0 mg/kg/injection, vehicle: carboxymethylcellulose (CMC)) is 102 % of control.

`O=C(COc1cc(Cl)c(Cl)cc1Cl)OCCOc1cc(Cl)c(Cl)cc1Cl`: the T/C (dose: 11.25 mg/kg/injection, vehicle: carboxymethylcellulose (CMC)) is 91 % of control; the T/C (dose: 22.5 mg/kg/injection, vehicle: carboxymethylcellulose (CMC)) was 112 % of control; the T/C under setting [1] is 117 % of control; the T/C under setting [2] was 65 % of control.

As for `NC(=O)c1ccc(NC(=O)CCC(=O)Nc2ccc(C(N)=O)cn2)nc1`, the T/C is 106 % of control (dose: 0.5 mg/kg/injection, vehicle: saline); 117 % of control (dose: 1.0 mg/kg/injection, vehicle: saline); 106 % of control (dose: 2.0 mg/kg/injection, vehicle: saline); 57 % of control (dose: 4.0 mg/kg/injection, vehicle: saline).

For the molecule `CCN(CC)c1ccc(/C=C/c2ccnc3ccccc23)cc1`, the T/C was 202 % of control (dose: 1.5 mg/kg/injection, vehicle: carboxymethylcellulose (CMC)); 280 % of control (dose: 3.0 mg/kg/injection, vehicle: carboxymethylcellulose (CMC)); 106 % of control (dose: 12.0 mg/kg/injection, vehicle: carboxymethylcellulose (CMC)).

`Cc1c2oc3c(C)ccc(C(=O)N[C@@H]4C(=O)N[C@H](C(C)C)C(=O)N5CCC[C@H]5C(=O)N(C)CC(=O)N(C)[C@@H](C(C)C)C(=O)O[C@H]4C)c3nc-2c(C(=O)N[C@@H]2C(=O)N[C@H](C(C)C)C(=O)N3CCC[C@H]3C(=O)N(C)CC(=O)N(C)[C@@H](C(C)C)C(=O)O[C@H]2C)c(N)c1=O` (I: [aThr][dV]P[Sar][NMeV] / II: [aThr][dV]P[Sar][NMeV]; ester I:1-I:C, II:1-II:C; linker I:N-II:N via Actinocin(9to1)): the T/C reads like this: (dose: 0.03 mg/kg/injection, vehicle: carboxymethylcellulose (CMC)) 86 % of control; under setting [4], 38 % of control and 49 % of control; (dose: 0.08 mg/kg/injection, vehicle: carboxymethylcellulose (CMC)) 29 % of control; (dose: 6.0 micrograms/kg/injection, vehicle: carboxymethylcellulose (CMC)) 102 % of control; (dose: 13.0 micrograms/kg/injection, vehicle: carboxymethylcellulose (CMC)) 93 % of control; (dose: 20.0 micrograms/kg/injection, vehicle: carboxymethylcellulose (CMC)) 55 % of control. For the same molecule, the T/C (dose: 33.0 micrograms/kg/injection, vehicle: carboxymethylcellulose (CMC)) was 105 % of control.

Take `Nc1nc(N)c(N=O)c(Nc2ccc(Cl)c(Cl)c2)n1`: the T/C was 153 % of control (dose: 3.75 mg/kg/injection, vehicle: carboxymethylcellulose (CMC)); 69 % of control (dose: 7.5 mg/kg/injection, vehicle: carboxymethylcellulose (CMC)); 109 % of control (dose: 15.0 mg/kg/injection, vehicle: carboxymethylcellulose (CMC)); 91 % of control (dose: 30.0 mg/kg/injection, vehicle: carboxymethylcellulose (CMC)).

For `Nc1ccc(C(=O)O)c(O)c1`, the T/C is, setting by setting: (dose: 37.8 mg/kg/injection, vehicle: carboxymethylcellulose (CMC)) 82 % of control; (dose: 75.7 mg/kg/injection, vehicle: carboxymethylcellulose (CMC)) 101 % of control; (dose: 151.5 mg/kg/injection, vehicle: carboxymethylcellulose (CMC)) 113 % of control; (dose: 303.0 mg/kg/injection, vehicle: carboxymethylcellulose (CMC)) 95 % of control.

Consider `O=C(O)C(=O)c1ccc(-c2ccccc2)cc1`, for which the T/C is, setting by setting: (dose: 62.0 mg/kg/injection, vehicle: carboxymethylcellulose (CMC)) 67 % of control; under setting [3], 45 % of control.
